The values below come from patent publication US7625948B2, “Ester compound and medicinal use thereof” (Japan Tobacco Inc., priority 2002, dated 2009).

The subject of one experiment is HepG2 cells. Description: Test Example 2: inhibition of apolipoprotein B secretion from HepG2 cells, ELISA (also used for metabolites in Test Example 8). Format: cell-based. The settings on record: Homo sapiens, 24 hours, apo B in supernatant by ELISA, read-out: Test Example 2 Inhibition of apo B secretion IC50. In outline:
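HepG2 cells cultured 24 h, then exposed 24 h to compounds or metabolites in medium with 0.5% DMSO. Secreted apo B in supernatant quantified by sandwich ELISA (HRP, ABTS, 405 nm) against purified human apo B standard; % inhibition vs DMSO group, IC50 derived.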
For orientation: ELISA stands for enzyme-linked immunosorbent assay.

In experiment [1] the target is T1, Microsomal triglyceride transfer protein (MTP) from bovine liver (Bos taurus, UniProt P55156).
T1 construct: from tissue; host or cells: bovine liver
T1 sequence (P55156 12-887): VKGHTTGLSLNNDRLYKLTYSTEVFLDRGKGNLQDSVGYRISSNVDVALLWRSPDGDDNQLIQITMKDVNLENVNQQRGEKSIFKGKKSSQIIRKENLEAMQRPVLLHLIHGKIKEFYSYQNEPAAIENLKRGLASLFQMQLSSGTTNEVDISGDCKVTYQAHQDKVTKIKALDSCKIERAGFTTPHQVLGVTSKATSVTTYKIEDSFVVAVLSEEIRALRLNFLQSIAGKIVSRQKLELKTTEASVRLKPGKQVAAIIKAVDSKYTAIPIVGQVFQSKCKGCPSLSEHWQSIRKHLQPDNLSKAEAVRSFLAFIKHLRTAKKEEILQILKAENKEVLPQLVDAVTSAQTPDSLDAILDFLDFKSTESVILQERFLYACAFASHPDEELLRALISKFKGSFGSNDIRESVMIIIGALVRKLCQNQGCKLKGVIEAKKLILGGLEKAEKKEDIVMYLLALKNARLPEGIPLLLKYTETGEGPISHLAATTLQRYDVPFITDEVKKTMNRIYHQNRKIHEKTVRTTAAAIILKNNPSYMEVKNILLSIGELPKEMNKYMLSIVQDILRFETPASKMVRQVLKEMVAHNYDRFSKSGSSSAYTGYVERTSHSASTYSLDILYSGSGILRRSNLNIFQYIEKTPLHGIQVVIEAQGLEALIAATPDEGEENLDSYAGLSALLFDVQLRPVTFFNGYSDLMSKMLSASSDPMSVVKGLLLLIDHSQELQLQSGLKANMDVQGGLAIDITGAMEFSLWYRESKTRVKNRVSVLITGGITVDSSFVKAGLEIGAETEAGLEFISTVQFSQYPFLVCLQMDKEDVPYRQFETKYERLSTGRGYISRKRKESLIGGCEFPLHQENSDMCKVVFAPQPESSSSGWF
T1 sequence (P05307 21-510 partner): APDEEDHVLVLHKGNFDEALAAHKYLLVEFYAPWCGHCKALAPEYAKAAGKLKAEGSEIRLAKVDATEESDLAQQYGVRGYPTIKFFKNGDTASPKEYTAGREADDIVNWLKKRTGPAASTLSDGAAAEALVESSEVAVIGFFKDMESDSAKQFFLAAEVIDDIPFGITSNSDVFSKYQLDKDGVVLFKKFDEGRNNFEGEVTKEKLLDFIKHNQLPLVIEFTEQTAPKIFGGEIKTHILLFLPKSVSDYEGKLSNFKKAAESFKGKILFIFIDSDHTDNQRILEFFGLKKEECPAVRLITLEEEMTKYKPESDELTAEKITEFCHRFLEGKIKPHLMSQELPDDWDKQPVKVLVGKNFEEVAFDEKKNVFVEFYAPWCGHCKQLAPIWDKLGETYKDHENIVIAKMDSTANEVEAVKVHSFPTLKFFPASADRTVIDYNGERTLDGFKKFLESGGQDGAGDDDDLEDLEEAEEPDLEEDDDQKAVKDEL
The experiment is described as follows: Test Example 1: inhibition of interliposomal triglyceride (TG) transfer activity by MTP (also used for metabolites in Test Example 8). The settings on record: MTP-mediated 14C-triolein transfer between liposomes, 37° C., one hour; read-out: Test Example 1 MTP inhibition IC50. Type of experiment: biochemical. In outline:
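Partially purified bovine liver MTP (DEAE chromatography) incubated 1 h at 37 °C, pH 7.4, with ^14C-triolein-labelled donor SUVs and unlabelled acceptor SUVs plus compound in DMSO. Acceptor radioactivity, blank-corrected, gave % inhibition versus DMSO; IC50 derived. Metabolites tested likewise.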

The test system of experiment [2] is Syrian hamsters. Description: Test Example 3: olive oil-loading test (inhibition of fat absorption, plasma TG). Format: in vivo. The settings on record: Mesocricetus auratus, po; 100 mg/kg p.o.; plasma TG 4 hours after olive oil; read-out: Test Example 3 Inhibition of fat absorption after olive oil-loading in Hamster Inhibition rate (%).
The subject of experiment [3] is Syrian hamsters. The experiment is described as above. Format: in vivo. The settings on record: Mesocricetus auratus, po, plasma TG 4 hours after olive oil, read-out: Test Example 3 Inhibition of fat absorption after olive oil-loading in Hamster Inhibition rate (%); for inhibition in vivo at 3 mg/kg: 3 mg/kg p.o. Here is the method:
Syrian hamsters (9-11 weeks of age) under non-fasted conditions were used in the test. Blood was collected previously from orbital venous plexus, and a sample was suspended in 0.5% methyl cellulose (vehicle) and the suspension was forced to be administered orally to the hamsters at a dose of 0.3, 1, 3 or 10 mg/2 mL/kg. Only vehicle in the same volume was administered to the control group. Olive oil (2 mL/kg) was forced to be administered orally 30 minutes after the administration of the sample, and blood was collected from orbital venous plexus 4 hours later. Plasma was recovered from the blood, and the amount of triglyceride (TG) in the plasma was determined by automatic analyzer (Hitachi Co.). The data was expressed in terms of ΔTG(mg/dL)=the value at 4th hr minus the value before administration. Inhibition rate (%) was calculated from the data obtained on the basis of the following equation.
Inhibition rate (%)=100×(1 minus ΔTG of sample group/ΔTG of control group).

Regarding `CCOC(=O)C(COC(=O)Cc1ccc(NC(=O)c2ccccc2-c2ccc(C(F)(F)F)cc2)c(C)c1)(C(=O)OCC)c1ccccc1` [Example 1-3, 2-(2-{3-Methyl-4-[(4′-trifluoromethylbiphenyl-2-carbonyl)amino]phenyl}acetoxymethyl)-2-phenylmalonic acid diethyl ester], the half-inhibitory concentration (IC50) (commonly the concentration that gives 50% inhibition) in the experiment on HepG2 cells worked out at 5.75 nM; in experiment [1], 4.7 nM. Besides, the inhibition in vivo at 100 mg/kg in the experiment on Syrian hamsters [2] was 65%.

Take `CCNC(=O)C(COC(=O)Cc1ccc(NC(=O)c2ccccc2-c2ccc(C(F)(F)F)cc2)c(C)c1)(C(=O)NCC)c1ccccc1` [Example 1-45]: the IC50 with HepG2 cells was 0.46 nM; in experiment [1], 0.39 nM. The inhibition in vivo at 100 mg/kg in the experiment on Syrian hamsters [2] stood at 71%.

As to `CC(C)CNC(=O)C(COC(=O)Cc1ccc(NC(=O)c2ccccc2-c2ccc(C(F)(F)F)cc2)cc1)(C(=O)NCC(C)C)c1ccccc1` [Example 1-66], the IC50 in the experiment on HepG2 cells stood at 9.3 nM; in experiment [1] it was 16 nM. In addition, the inhibition in vivo at 100 mg/kg with Syrian hamsters [2] amounted to 52%.

Regarding `CCCNC(=O)C(COC(=O)Cc1ccc(NC(=O)c2ccccc2-c2ccc(C(F)(F)F)cc2)c(C)c1)(C(=O)NCCC)c1ccccc1` [Example 1-72], the figures for the IC50 (with HepG2 cells; in experiment [1]) were 2.7 nM and 0.44 nM, respectively. In addition, in the experiment on Syrian hamsters [2], the inhibition in vivo at 100 mg/kg was found to be 54%.

Turning to `CCNC(=O)C(COC(=O)Cc1ccc(NC(=O)c2ccccc2-c2ccc(C(F)(F)F)cc2)c(C(=O)N(CC)CC)c1)(C(=O)NCC)c1ccccc1` [Example 2-8], in the experiment with HepG2 cells, the concentration for half-maximal inhibition (IC50) was 0.99 nM. For the same compound, in the experiment with Syrian hamsters [3], the inhibition in vivo at 3 mg/kg came to 89%.

For `CCOC(=O)C(COC(=O)Cc1ccc(NC(=O)c2ccccc2-c2ccc(C(F)(F)F)cc2)c(C(=O)N(C)CC)c1)(C(=O)OCC)c1ccccc1` [Example 2-13], the IC50 in the experiment with HepG2 cells was determined as 0.74 nM. In the experiment on Syrian hamsters [3], the inhibition in vivo at 3 mg/kg was determined as 70%.

`CCNC(=O)C(COC(=O)Cc1ccc(NC(=O)c2ccccc2-c2ccc(C(F)(F)F)cc2)c(C(=O)N(C)CC)c1)(C(=O)NCC)c1ccccc1` [Example 2-14]: the half-inhibitory concentration (IC50) with HepG2 cells is 1.2 nM. In the experiment on Syrian hamsters [3], the inhibition in vivo at 3 mg/kg is 80%.

For `CCNC(=O)C(CCOC(=O)Cc1ccc(NC(=O)c2ccccc2-c2ccc(C(F)(F)F)cc2)c(C(=O)N(C)CC)c1)(C(=O)NCC)c1ccccc1` [Example 2-15], the IC50 with HepG2 cells was 0.53 nM. Further, the inhibition in vivo at 3 mg/kg with Syrian hamsters [3] is 81%.

Consider `CCCN(C)C(=O)c1cc(CC(=O)OCC(C(=O)OCC)(C(=O)OCC)c2ccccc2)ccc1NC(=O)c1ccccc1-c1ccc(C(F)(F)F)cc1` [Example 2-18], for which, in the experiment on HepG2 cells, the concentration for half-maximal inhibition (IC50) came out at 0.69 nM. The inhibition in vivo at 3 mg/kg with Syrian hamsters [3] was 58%.

As to `CCC(=O)N[C@H](COC(=O)Cc1ccc(NC(=O)c2ccccc2-c2ccc(C(F)(F)F)cc2)c(C(=O)N(C)C)c1)c1ccccc1` [Example 2-25], the IC50 in the experiment with HepG2 cells turned out to be 6.3 nM. For the same compound, in the experiment on Syrian hamsters [3], the inhibition in vivo at 3 mg/kg was 55%.

Regarding `CCOC(=O)C(COC(=O)Cc1ccc(NC(=O)c2ccc(C)cc2-c2ccc(C(F)(F)F)cc2)c(C(=O)N(C)C)c1)(C(=O)OCC)c1ccccc1` [Example 2-48], the IC50 with HepG2 cells was 0.36 nM. The inhibition in vivo at 3 mg/kg in the experiment on Syrian hamsters [3] came out at 87%.

Turning to `CCCNC(=O)C(COC(=O)Cc1ccc(NC(=O)c2ccccc2-c2ccc(C(F)(F)F)cc2)c(OC)c1)(C(=O)NCCC)c1ccccc1` [Example 3-5], in the experiment on HepG2 cells, the IC50 amounted to 2.2 nM. The inhibition in vivo at 10 mg/kg with Syrian hamsters [3] (10 mg/kg p.o.) turned out to be 80%.

On to `CCNC(=O)C(CCOC(=O)Cc1ccc(NC(=O)c2ccccc2-c2ccc(C(F)(F)F)cc2)c(OC(C)C)c1)(C(=O)NCC)c1ccccc1` [Example 3-11], for which the IC50 in the experiment with HepG2 cells was determined as 0.36 nM. Moreover, the inhibition in vivo at 3 mg/kg in the experiment on Syrian hamsters [3] came out at 75%.

With `CCNC(=O)C(CCOC(=O)Cc1cccc(NC(=O)c2ccccc2-c2ccc(C(F)(F)F)cc2)c1C)(C(=O)NCC)c1ccccc1` [Example 5-9], the half-inhibitory concentration (IC50) in the experiment with HepG2 cells came out at 28 nM; in experiment [1], 4 nM. For the same compound, the inhibition in vivo at 100 mg/kg with Syrian hamsters [2] was 78%.

`CCCNC(=O)C(CCOC(=O)Cc1cccc(NC(=O)c2ccccc2-c2ccc(C(F)(F)F)cc2)c1C)(C(=O)NCCC)c1ccccc1` [Example 5-11]: the IC50 with HepG2 cells turned out to be 5.1 nM; in experiment [1] it was 1.3 nM. Further, the inhibition in vivo at 100 mg/kg with Syrian hamsters [2] turned out to be 64%.

`CCOC(=O)C(COC(=O)CN1CCC(NC(=O)c2ccccc2-c2ccc(C(F)(F)F)cc2)CC1)(C(=O)OCC)c1ccccc1` [Example 8, 2-Phenyl-2-(2-{4-[(4′-trifluoromethylbiphenyl-2-carbonyl)amino]piperidin-1-yl}acetoxymethyl)malonic acid diethyl ester]: the IC50 in the experiment on HepG2 cells was 595 nM; in experiment [1], 33 nM.

`CCOC(=O)C(COC(=O)Cn1ccc2c(NC(=O)c3ccccc3-c3ccc(C(F)(F)F)cc3)cccc21)(C(=O)OCC)c1ccccc1` [Example 9, 2-Phenyl-2-(2-{4-[(4′-trifluoromethylbiphenyl-2-carbonyl)amino]indol-1-yl}acetoxymethyl)malonic acid diethyl ester]: the IC50 was found to be 260 nM in the experiment with HepG2 cells and 11 nM in experiment [1].

Take `CCOC(=O)C(COC(=O)Cn1c(C)nc2c(NC(=O)c3ccccc3-c3ccc(C(F)(F)F)cc3)cccc21)(C(=O)OCC)c1ccccc1` [Example 9-2, 2-(2-{2-methyl-4-[(4′-trifluoromethylbiphenyl-2-carbonyl}amino]benzimidazol-1-yl}acetoxymethyl)-2-phenyl-malonic acid diethyl ester]: the IC50 in the experiment with HepG2 cells worked out at 450 nM; in experiment [1], 4.2 nM.

Turning to `CCNC(=O)C(COC(=O)Cc1ccc(NC(=O)c2ccccc2-c2ccc(C(F)(F)F)cc2)c(C(=O)OCC)c1)(C(=O)NCC)c1ccccc1` [Example 9-10], the IC50 with HepG2 cells is 2.3 nM. The inhibition in vivo at 3 mg/kg with Syrian hamsters [3] came out at 54%.

For the compound `CCOC(=O)C(COC(=O)Cn1cnc2c(NC(=O)c3ccccc3-c3ccc(C(F)(F)F)cc3)cccc21)(C(=O)OCC)c1ccccc1` [Example 9-11], the IC50 with HepG2 cells came to 210 nM; in experiment [1], 20 nM.

Turning to `CCNC(=O)C(COC(=O)Cc1ccc(NC(=O)c2ccccc2-c2ccc(C(F)(F)F)cc2)c(C(=O)OC)c1)(C(=O)NCC)c1ccccc1` [Example 9-13], in the experiment on HepG2 cells, the IC50 came to 0.53 nM. In addition, the inhibition in vivo at 3 mg/kg in the experiment on Syrian hamsters [3] was 70%.
